Assay results published in ChEMBL document CHEMBL1212738, “Phenotypic and genotypic characterization of Enterobacteriaceae with decreased susceptibility to carbapenems: results from large hospital-based surveillance studies in China” (2010).

Columns and labels:
[1] = tested on: Enterobacter cloacae; test: Antimicrobial activity against carbapenem-resistant Enterobacter cloacae GX56 deficient in ompC and expressing low levels of ompF DE by CLSI method; format: functional
[2] = tested on: Escherichia coli; test: Antimicrobial activity against carbapenem-resistant Escherichia coli PU60 deficient in TEM-1, CMY-2, ompC/F by CLSI method; format: functional
[3] = tested on: Enterobacter cloacae; test: Antimicrobial activity against carbapenem-resistant Enterobacter cloacae NJ91 deficient in CTX-M-14, ompC/F by CLSI method; format: functional
[4] = tested on: Klebsiella pneumoniae; test: Antimicrobial activity against carbapenem-resistant Klebsiella pneumoniae ZJ18 deficient in KPC-2, SHV-28, DHA-1, ompK35 by CLSI method; format: functional
[5] = tested on: Escherichia coli; test: Antimicrobial activity against carbapenem-resistant Escherichia coli PU102 deficient in TEM-1, CTX-M-14, CMY-2, aac(6')-Ib, ompC DEc, ompF by CLSI method; format: functional
[6] = tested on: Klebsiella pneumoniae; test: Antimicrobial activity against Klebsiella pneumoniae GZ64T expressing IMP-4 by CLSI method; format: functional
[7] = tested on: Enterobacter cloacae; test: Antimicrobial activity against carbapenem-resistant Enterobacter cloacae SZ93 deficient in ompC by CLSI method; format: functional
[8] = tested on: Klebsiella pneumoniae; test: Antimicrobial activity against Klebsiella pneumoniae PU104T expressing TEM-1, CTX-M-15 by CLSI method; format: functional
[9] = tested on: Klebsiella pneumoniae; test: Antimicrobial activity against Klebsiella pneumoniae ZJ18T expressing KPC-2, DHA-1 by CLSI method; format: functional
[10] = tested on: Klebsiella pneumoniae; test: Antimicrobial activity against carbapenem-resistant Klebsiella pneumoniae CY75 deficient in SHV-11, DHA-1, ompK35/36 by CLSI method; format: functional
[11] = tested on: Escherichia coli; test: Antimicrobial activity against carbapenem-resistant Escherichia coli PU101 deficient in TEM-1, CTX-M-14, CMY-2, ompC by CLSI method; format: functional
[12] = tested on: Klebsiella pneumoniae; test: Antimicrobial activity against carbapenem-resistant Klebsiella pneumoniae PU5 deficient in SHV-12, DHA-1, aac(6')-Ib-cr, ompK35/36 by CLSI method; format: functional
[13] = tested on: Escherichia coli; test: Antimicrobial activity against Escherichia coli C600 transconjugant XJ81T expressing TEM-1, SHV-12, aac(6')-Ib by CLSI method
[14] = tested on: Klebsiella pneumoniae; test: Antimicrobial activity against Klebsiella pneumoniae FZ49T expressing IMP-8, TEM-1, CTX-M-14, qnrB2, aac(6')-Ib by CLSI method; format: functional
[15] = tested on: Escherichia coli; test: Antimicrobial activity against Escherichia coli C600 transconjugant WH77T expressing IMP-4, TEM-1, CTX-M-3, qnrS1 by CLSI method
[16] = tested on: Citrobacter freundii; test: Antimicrobial activity against Citrobacter freundii RJ78 expressing CMY-2, qnrA1, aac(6')-Ib-cr, ompC by CLSI method; format: functional
[17] = tested on: Enterobacter cloacae; test: Antimicrobial activity against carbapenem-resistant Enterobacter cloacae RJ94 deficient in IMP-4, TEM-1, CTX-M-3, ompC by CLSI method; format: functional
[18] = tested on: Escherichia coli; test: Antimicrobial activity against Escherichia coli ZJ87 expressing KPC-2, TEM-1, ompC by CLSI method; format: functional
[19] = tested on: Enterobacter cloacae; test: Antimicrobial activity against carbapenem-resistant Enterobacter cloacae NJ90 deficient in CTX-M-14, ompC/F by CLSI method; format: functional
[20] = tested on: Klebsiella pneumoniae; test: Antimicrobial activity against carbapenem-resistant Klebsiella pneumoniae PU3 deficient in DHA-1, aac(6')-Ib-cr, ompK35/36 by CLSI method; format: functional
[21] = tested on: Escherichia coli; test: Antimicrobial activity against carbapenem-resistant Escherichia coli ZJ86 expressing KPC-2, TEM-1 with ompC loss by CLSI method
[22] = tested on: Escherichia coli; test: Antimicrobial activity against Escherichia coli PU101T expressing CMY-2 by CLSI method; format: functional
[23] = tested on: Klebsiella pneumoniae; test: Antimicrobial activity against carbapenem-resistant Klebsiella pneumoniae PU105 deficient TEM-1, SHV-12, CTX-M-14, DHA-1, qnrB10/B4-like, aac(6')-Ib-cr, ompK35/36 by CLSI method; format: functional
[24] = tested on: Escherichia coli; test: Antimicrobial activity against Escherichia coli HX74T expressing CTX-M-3 by CLSI method; format: functional
[25] = tested on: Escherichia coli; test: Antimicrobial activity against Escherichia coli PU102T expressing TEM-1, CTX-M-14, CMY-2 by CLSI method; format: functional
[26] = tested on: Klebsiella pneumoniae; test: Antimicrobial activity against Klebsiella pneumoniae WH97 expressing SHV-33, aac(6')-Ib, ompK35 DE by CLSI method; format: functional
[27] = tested on: Enterobacter cloacae; test: Antimicrobial activity against carbapenem-resistant Enterobacter cloacae NJ89 deficient in CTX-M-14, ompC/F by CLSI method; format: functional
[28] = tested on: Escherichia coli; test: Antimicrobial activity against Escherichia coli ZJ86T expressing KPC-2 by CLSI method; format: functional
[29] = tested on: Escherichia coli; test: Antimicrobial activity against Escherichia coli C600 transconjugant SZ62T expressing IMP-4, qnrS1by CLSI method
[30] = tested on: Klebsiella pneumoniae; test: Antimicrobial activity against Klebsiella pneumoniae FZ47T expressing IMP-8, TEM-1, CTX-M-14, qnrB2, aac(6')-Ib by CLSI method; format: functional
[31] = tested on: Klebsiella pneumoniae; test: Antimicrobial activity against carbapenem-resistant Klebsiella pneumoniae ZJ71 deficient in KPC-2, TEM-1, SHV-11, CTX-M-14, ompK35 by CLSI method; format: functional
[32] = tested on: Klebsiella pneumoniae; test: Antimicrobial activity against carbapenem-resistant Klebsiella pneumoniae GZ83 deficient in SHV-11, CTX-M-14, ompK35/36 by CLSI method; format: functional

Measured: MIC

CO[C@@]1(NC(=O)Cc2cccs2)C(=O)N2C(C(=O)O)=C(COC(N)=O)CS[C@@H]21 [CEFOXITIN]
256 µg/mL: [6] | [8]
128 µg/mL: [9]
64 µg/mL: [18] | [21] | [28]
16 µg/mL: [13] | [24] | [31]
> 256 µg/mL: all other assays above
